The structures appear in SMILES notation.

This note sets out measurements from patent US4965280A, “Antifungal carbinols” (E. I. Du Pont de Nemours and Company, priority 1989, dated 1990).

One test concerns WILLMS SOYBEANS
As to the kind of experiment: Test D. The class given is in vivo, Glycine max.

The subject of another test is LADY SMARTWEED
Briefly: Test D. In kind it is in vivo, Polygonum persicaris. Here is the method: (§1) The Corn and Sorghum Herbicide Test included the following species in both the preemergence and postemergence evaluations:
(§2) Postemergence plantings were grown in Sassafras sandy loam soil. Corn and soybeans were grown in separate 25 cm diameter containers. Sorghum and the seven grass weed species were grown in two 18 cm diameter containers, 4 species per container. The seven broadleaf weed species were also grown in two 18 cm diameter containers, 4 species in one container, 3 species in the second container. One additional planting of corn in an 18 cm diameter container was made. The soil surface of this additional container of corn was covered with the absorbent, perlite, before spray treatment so that test chemicals would enter the plant only via the foliage. The plants were grown 10-21 days, dependent upon the species and then sprayed postemergence with the test chemicals dissolved in a nonpytotoxic solvent.
Preemergence plantings were grown in fertilized Tama silt loam soil. These plantings are identical to those described in the postemergence section, with the exception of the corn planting having perlite covering the soil surface. These plantings were made the day of or the day before spraying the test chemicals dissolved in a nonphytotoxic solvent.
(§3) Treated plants and controls were maintained in the greenhouse for 2 to 4 weeks. Visual planting response ratings were made on a percentage scale of 0 to 100 in comparison with a control where 0=no injury, and 100=death.

The next test deals with REDROOT PIGWEED. Briefly: Test D. The class given is in vivo, Amaranthus retroflexus.
The subject of another test is PERLITE CORN. Briefly: Test D, soil covered with perlite. In kind it is in vivo, Zea mays. Here is the method: as §1, §2, §3

With `C=C(c1ccccc1Cl)C(O)(Cn1cncn1)c1ccc(F)cc1F` (stereo not shown) [Example 35], the plant response in the test on WILLMS SOYBEANS (POSTEMERGENCE 0250 GM/HA) stood at 10%; in the test with WILLMS SOYBEANS (POSTEMERGENCE 0500 GM/HA) it was 30%; in the test with WILLMS SOYBEANS (PREEMERGENCE 0064 GM/HA) it was 0%; with WILLMS SOYBEANS (PREEMERGENCE 0125 GM/HA), 0%; in the test on WILLMS SOYBEANS (PREEMERGENCE 0250 GM/HA), 0%; with WILLMS SOYBEANS (PREEMERGENCE 0500 GM/HA) it was 0%. Moreover, the plant response was determined as 50% in the test on LADY SMARTWEED (POSTEMERGENCE 0250 GM/HA); 50% in the test on LADY SMARTWEED (POSTEMERGENCE 0500 GM/HA); 0% with LADY SMARTWEED (PREEMERGENCE 0064 GM/HA); 30% with LADY SMARTWEED (PREEMERGENCE 0125 GM/HA); 50% in the test with LADY SMARTWEED (PREEMERGENCE 0250 GM/HA); 100% with LADY SMARTWEED (PREEMERGENCE 0500 GM/HA). Also, the plant response in the test with REDROOT PIGWEED (POSTEMERGENCE 0250 GM/HA) turned out to be 30%; in the test on REDROOT PIGWEED (POSTEMERGENCE 0500 GM/HA), 70%; in the test with REDROOT PIGWEED (PREEMERGENCE 0064 GM/HA), 0%; in the test on REDROOT PIGWEED (PREEMERGENCE 0125 GM/HA) it was 0%; with REDROOT PIGWEED (PREEMERGENCE 0250 GM/HA), 50%; in the test with REDROOT PIGWEED (PREEMERGENCE 0500 GM/HA) it was 98%. Besides, the plant response in the test with PERLITE CORN (POSTEMERGENCE 0250 GM/HA) and in the test on PERLITE CORN (POSTEMERGENCE 0500 GM/HA) was 0% each time.

As for `C=C(c1ccccc1)C(O)(Cn1cncn1)c1ccc(Cl)cc1Cl` (stereo not shown) [Example 50, 2-(2,4-Dichlorophenyl)-3-phenyl-1-(1H-1,2,4-triazol-1-yl)-3-buten-2-ol], the plant response is 35% in the test with WILLMS SOYBEANS (POSTEMERGENCE 0250 GM/HA); 65% in the test with WILLMS SOYBEANS (POSTEMERGENCE 0500 GM/HA); 0% in the test with WILLMS SOYBEANS (PREEMERGENCE 0064 GM/HA); 0% in the test with WILLMS SOYBEANS (PREEMERGENCE 0125 GM/HA); 0% in the test with WILLMS SOYBEANS (PREEMERGENCE 0250 GM/HA); 20% in the test on WILLMS SOYBEANS (PREEMERGENCE 0500 GM/HA). The plant response in the test on LADY SMARTWEED (POSTEMERGENCE 0250 GM/HA) is on record as 30%; with LADY SMARTWEED (POSTEMERGENCE 0500 GM/HA), 40%; with LADY SMARTWEED (PREEMERGENCE 0064 GM/HA), 0%; in the test with LADY SMARTWEED (PREEMERGENCE 0125 GM/HA), 0%; in the test with LADY SMARTWEED (PREEMERGENCE 0250 GM/HA) it was 20%; in the test with LADY SMARTWEED (PREEMERGENCE 0500 GM/HA), 40%. Further, the plant response was found to be 65% in the test on REDROOT PIGWEED (POSTEMERGENCE 0250 GM/HA); 95% with REDROOT PIGWEED (POSTEMERGENCE 0500 GM/HA); 0% with REDROOT PIGWEED (PREEMERGENCE 0064 GM/HA); 40% in the test with REDROOT PIGWEED (PREEMERGENCE 0125 GM/HA); 85% with REDROOT PIGWEED (PREEMERGENCE 0250 GM/HA); 100% with REDROOT PIGWEED (PREEMERGENCE 0500 GM/HA). Also, the plant response in the test on PERLITE CORN (POSTEMERGENCE 0250 GM/HA) and in the test on PERLITE CORN (POSTEMERGENCE 0500 GM/HA) was 0% in each case.
